Data taken from ChEMBL document CHEMBL4651402, “Screening of ~5500 FDA-approved drugs and clinical candidates for anti-SARS-CoV-2 activity” (2021).

Experiments:
SARS-CoV-2 [1] = experiment: microbe, parasite or virus in culture; conditions: Severe acute respiratory syndrome coronavirus 2, Vero C1008, 48 h
in vitro = conditions: chlorocebus sabaeus, Vero E6 (Vero C1008) cells
SARS-CoV-2 [2] = experiment: microbe, parasite or virus in culture; type: functional, organism-based, Chlorocebus sabaeus, Vero C1008; conditions: Severe acute respiratory syndrome coronavirus 2, Vero C1008, 48 h

## Cc1ccc(C(=O)Oc2ccc(C(O)CNC(C)(C)C)cc2OC(=O)c2ccc(C)cc2)cc1 (stereo unspecified) [BITOLTEROL]
SARS-CoV-2 [1]
  IC50: 8.13 µM
SARS-CoV-2 [1]; read-out: pIC50 (converted)
  IC50: 8.13 µM
In vitro; CC50
  CC50 at 48 h: 5.69 µM
In vitro; pCC50
  CC50 at 48 h: 5.62 µM
SARS-CoV-2 [2]; read-out: IC50
  IC50: > 100 µM
SARS-CoV-2 [2]; read-out: pIC50 (converted)
  IC50: > 100 µM

## CNCc1ccc(C)c(NC(=O)c2ccc(Nc3nc(-c4ccccc4)c4ccccc4n3)cc2)c1 [BMS-833923]
SARS-CoV-2 [1]
  IC50: 2.95 µM
SARS-CoV-2 [1]; read-out: pIC50 (converted)
  IC50: 2.95 µM
In vitro; CC50
  CC50 at 48 h: 3.09 µM
In vitro; pCC50
  CC50 at 48 h: 3.09 µM
SARS-CoV-2 [2]; read-out: IC50
  IC50: > 100 µM
SARS-CoV-2 [2]; read-out: pIC50 (converted)
  IC50: > 100 µM

## COc1ccccc1N1CCN(CCCCNC(=O)c2ccc3ccccc3c2)CC1 [BP-897]
SARS-CoV-2 [1]
  IC50: > 25.1 µM
SARS-CoV-2 [1]; read-out: pIC50 (converted)
  IC50: > 25.1 µM
In vitro; CC50
  CC50 at 48 h: 30.2 µM
In vitro; pCC50
  CC50 at 48 h: 30.2 µM
SARS-CoV-2 [2]; read-out: IC50
  IC50: > 25.1 µM
SARS-CoV-2 [2]; read-out: pIC50 (converted)
  IC50: > 25.1 µM

## O=c1ccc2ccc(OCCCCN3CCN(c4cccc5sccc45)CC3)cc2[nH]1 [BREXPIPRAZOLE]
SARS-CoV-2 [1]
  IC50: > 100 µM
SARS-CoV-2 [1]; read-out: pIC50 (converted)
  IC50: > 100 µM
In vitro; CC50
  CC50 at 48 h: 12 µM
In vitro; pCC50
  CC50 at 48 h: 12 µM
SARS-CoV-2 [2]; read-out: IC50
  IC50: > 100 µM
SARS-CoV-2 [2]; read-out: pIC50 (converted)
  IC50: > 100 µM

## COc1cc(Br)c2oc(C3CCNCC3)cc2c1 [BROFAROMINE]
SARS-CoV-2 [1]
  IC50: 14.8 µM
SARS-CoV-2 [1]; read-out: pIC50 (converted)
  IC50: 14.8 µM
In vitro; CC50
  CC50 at 48 h: 19.1 µM
In vitro; pCC50
  CC50 at 48 h: 19.1 µM
SARS-CoV-2 [2]; read-out: IC50
  IC50: > 100 µM
SARS-CoV-2 [2]; read-out: pIC50 (converted)
  IC50: > 100 µM

## CC(C)(Cc1c[nH]c2ccccc12)NCC(O)COc1ccccc1C#N (stereo unspecified) [BUCINDOLOL]
SARS-CoV-2 [1]
  IC50: 17 µM
SARS-CoV-2 [1]; read-out: pIC50 (converted)
  IC50: 17 µM
In vitro; CC50
  CC50 at 48 h: 30.9 µM
In vitro; pCC50
  CC50 at 48 h: 30.9 µM
SARS-CoV-2 [2]; read-out: IC50
  IC50: > 100 µM
SARS-CoV-2 [2]; read-out: pIC50 (converted)
  IC50: > 100 µM

## CC(C)(C)c1ccc(CN2CCN(C(c3ccccc3)c3ccc(Cl)cc3)CC2)cc1 (stereo unspecified) [BUCLIZINE]
SARS-CoV-2 [1]
  IC50: > 100 µM
SARS-CoV-2 [1]; read-out: pIC50 (converted)
  IC50: > 100 µM
In vitro; CC50
  CC50 at 48 h: 81.3 µM
In vitro; pCC50
  CC50 at 48 h: 81.3 µM
SARS-CoV-2 [2]; read-out: IC50
  IC50: 20.4 µM
SARS-CoV-2 [2]; read-out: pIC50 (converted)
  IC50: 20.4 µM

## CCCCN(CCCC)CCCOc1ccc(C(=O)c2c(CC)cc3ccccn23)cc1 [BUTOPROZINE]
SARS-CoV-2 [1]
  IC50: > 100 µM
SARS-CoV-2 [1]; read-out: pIC50 (converted)
  IC50: > 100 µM
In vitro; CC50
  CC50 at 48 h: 6.61 µM
In vitro; pCC50
  CC50 at 48 h: 6.61 µM
SARS-CoV-2 [2]; read-out: IC50
  IC50: > 100 µM
SARS-CoV-2 [2]; read-out: pIC50 (converted)
  IC50: > 100 µM

## CCC(=O)c1ccc2c(c1)N(CCCN1CCN(CCO)CC1)c1ccccc1S2 [CARPHENAZINE]
SARS-CoV-2 [1]
  IC50: > 100 µM
SARS-CoV-2 [1]; read-out: pIC50 (converted)
  IC50: > 100 µM
In vitro; CC50
  CC50 at 48 h: 6.31 µM
In vitro; pCC50
  CC50 at 48 h: 6.31 µM
SARS-CoV-2 [2]; read-out: IC50
  IC50: > 100 µM
SARS-CoV-2 [2]; read-out: pIC50 (converted)
  IC50: > 100 µM

## NC(=O)C1(N2CCCCC2)CCN(CCCN2c3ccccc3CCc3ccccc32)CC1 [CARPIPRAMINE]
SARS-CoV-2 [1]
  IC50: 8.91 µM
SARS-CoV-2 [1]; read-out: pIC50 (converted)
  IC50: 8.91 µM
In vitro; CC50
  CC50 at 48 h: 8.61 µM
In vitro; pCC50
  CC50 at 48 h: 8.51 µM
SARS-CoV-2 [2]; read-out: IC50
  IC50: > 100 µM
SARS-CoV-2 [2]; read-out: pIC50 (converted)
  IC50: > 100 µM

## COc1ccccc1OCCNCC(O)COc1cccc2[nH]c3ccccc3c12 (stereo unspecified) [CARVEDILOL]
SARS-CoV-2 [1]
  IC50: 15.5 µM
SARS-CoV-2 [1]; read-out: pIC50 (converted)
  IC50: 15.5 µM
In vitro; CC50
  CC50 at 48 h: 17 µM
In vitro; pCC50
  CC50 at 48 h: 17 µM
SARS-CoV-2 [2]; read-out: IC50
  IC50: 10 µM
SARS-CoV-2 [2]; read-out: pIC50 (converted)
  IC50: 10 µM

## CC(=O)N1CCN([C@H]2CCN(C(=O)N(C)[C@H](C)c3cc(C(F)(F)F)cc(C(F)(F)F)c3)[C@@H](c3ccc(F)cc3C)C2)CC1 [CASOPITANT]
SARS-CoV-2 [1]
  IC50: > 25.1 µM
SARS-CoV-2 [1]; read-out: pIC50 (converted)
  IC50: > 25.1 µM
In vitro; CC50
  CC50 at 48 h: 17.8 µM
In vitro; pCC50
  CC50 at 48 h: 17.8 µM
SARS-CoV-2 [2]; read-out: IC50
  IC50: > 25.1 µM
SARS-CoV-2 [2]; read-out: pIC50 (converted)
  IC50: > 25.1 µM

## COc1cc2c(Oc3ccc4[nH]c(C)cc4c3F)ccnc2cc1OCC1(N)CC1 [CATEQUENTINIB]
SARS-CoV-2 [1]
  IC50: > 100 µM
SARS-CoV-2 [1]; read-out: pIC50 (converted)
  IC50: > 100 µM
In vitro; CC50
  CC50 at 48 h: 5.25 µM
In vitro; pCC50
  CC50 at 48 h: 5.25 µM
SARS-CoV-2 [2]; read-out: IC50
  IC50: > 100 µM
SARS-CoV-2 [2]; read-out: pIC50 (converted)
  IC50: > 100 µM

## Cc1ccccc1CN1CCN(CCOC(c2ccccc2)c2ccccc2Cl)CC1 (stereo unspecified) [CHLORBENZOXAMINE]
SARS-CoV-2 [1]
  IC50: > 100 µM
SARS-CoV-2 [1]; read-out: pIC50 (converted)
  IC50: > 100 µM
In vitro; CC50
  CC50 at 48 h: 15.3 µM
In vitro; pCC50
  CC50 at 48 h: 15.1 µM
SARS-CoV-2 [2]; read-out: IC50
  IC50: > 25.1 µM
SARS-CoV-2 [2]; read-out: pIC50 (converted)
  IC50: > 25.1 µM

## CCN(CC)CCCC(C)Nc1ccnc2cc(Cl)ccc12 (stereo unspecified) [CHLOROQUINE]
SARS-CoV-2 [1]
  IC50: ~5.86 µM
SARS-CoV-2 [1]; read-out: pIC50 (converted)
  IC50: ~5.89 µM
In vitro; CC50
  CC50 at 48 h: ~38.7 µM
In vitro; pCC50
  CC50 at 48 h: ~38.9 µM
SARS-CoV-2 [2]; read-out: IC50
  IC50: ~9.46 µM
SARS-CoV-2 [2]; read-out: pIC50 (converted)
  IC50: ~9.55 µM

## CN(C)CCOC(C)(c1ccccc1)c1ccc(Cl)cc1 (stereo unspecified) [CHLORPHENOXAMINE]
SARS-CoV-2 [1]
  IC50: 19.5 µM
SARS-CoV-2 [1]; read-out: pIC50 (converted)
  IC50: 19.5 µM
In vitro; CC50
  CC50 at 48 h: 28.2 µM
In vitro; pCC50
  CC50 at 48 h: 28.2 µM
SARS-CoV-2 [2]; read-out: IC50
  IC50: ~14.5 µM
SARS-CoV-2 [2]; read-out: pIC50 (converted)
  IC50: ~14.5 µM
